Tested on: Botrytis cinerea
Experiment: in vitro inhibition assay for volatile antimicrobial compounds (12-well PDA plates)
Assay type: cell-based
Details: 14 days at 4° C.; for lowest rate with 100% control of Botrytis cinerea: in vitro, volatile
Description: 12-Well (7 milliliter (mL volume per well) microtiter plates are used for the in vitro inhibition assay for volatile antimicrobial compounds. A 3-mL volume of full-strength Potato Dextrose Agar (PDA) is added to each well. After cooling, 1 microliter (μL) of 1×10^6 per mL Botrytis cinerea spore suspension is spot pipetted to the center of the agar. For the first experiment, inoculated plates are allowed to germinate for 5 days at 4° C. For the second experiment, plates are inoculated immediately prior to volatile fungicide treatment. Small Whatman #1 filter disks (Cat. No. 1001-0155) are placed, in duplicate, on the underside of a polyethylene PCR plate sealing film.
The acetone is permitted to evaporate for 5 minutes. The headspace around the Botrytis cinerea inoculum is then sealed inside the well by the film with the adhering disk containing the fungicide. Plates are inverted, placed over the treated disks and sealed to prevent any of the chemical from flaking from the disk and falling onto the inoculated agar. After 14 days of storage at 4° C., cultures are evaluated for percent growth relative to control. Regardless of whether the spores had germinated for 5 days, or if the treatment commenced soon after inoculation of the plates (˜15 minutes); there is 100% control of the fungal pathogen down to 0.005 mg.
A total of 14 antimicrobial compounds are tested using the in vitro inhibition assay described in Example 1. All 14 compounds are applied to the Whatman disks, in duplicate, in a dose dependent manner (0.31 to 0.0006 mg/disk). […] Other compounds, such as Compound C, Compound D, and Compound E conferred 100% control down to 0.023, 0.04, and 0.08 mg/disk, respectively. Results of nine compounds are summarized in Table 2, where the other five compounds show no detected activity in the ranges tested. […]

Row | Compound | Botrytis inhibition % (in vitro) (0.0006 mg per disk) [%] | Botrytis inhibition % (in vitro) (0.001 mg per disk) [%] | Botrytis inhibition % (in vitro) (0.0024 mg per disk) [%] | Botrytis inhibition % (in vitro) (0.005 mg per disk) [%] | Botrytis inhibition % (in vitro) (0.01 mg per disk) [%] | Botrytis inhibition % (in vitro) (0.023 mg per disk) [%] | Botrytis inhibition % (in vitro) (0.04 mg per disk) [%] | Botrytis inhibition % (in vitro) (0.08 mg per disk) [%] | Botrytis inhibition % (in vitro) (0.16 mg per disk) [%] | Botrytis inhibition % (in vitro) (0.31 mg per disk) [%] | lowest rate with 100% control of Botrytis cinerea [mg/disk]
1 | Fc1ccc2c(c1)COB2c1ccccc1 [Compound C] | 0 | 15 | 43 | 63 | 83 | 100 | 100 | 100 | 100 | 100 | 0.023
2 | Fc1ccc2c(c1)COB2c1ccsc1 [Compound D] | 0 | 0 | 15 | 38 | 70 | 80 | 100 | 100 | 100 | 100 | 0.04
3 | Fc1ccc2c(c1)COB2/C=C/c1ccccc1 [Compound E] | 13 | 13 | 28 | 38 | 69 | 79 | 79 | 100 | 100 | 100 | 0.08
4 | FC(F)(F)c1ccc2c(c1)COB2c1ccccc1 [F] | 0 | 0 | 0 | 8 | 8 | 10 | 18 | 40 | 53 | 70 | 
5 | FC(F)(F)c1ccc2c(c1)COB2c1ccsc1 [G] | 0 | 0 | 0 | 0 | 0 | 3 | 13 | 43 | 78 | 100 | 
6 | OB1OCc2cc(C(F)(F)F)ccc21 [H] | 0 | 0 | 0 | 0 | 3 | 18 | 38 | 55 | 80 | 85 | 
7 | OB1OCCc2ccccc21 [J] | 0 | 0 | 0 | 0 | 0 | 0 | 5 | 8 | 13 | 50 | 
8 | COc1cccc2c1B(O)OC2 [K] | 0 | 0 | 0 | 0 | 0 | 0 | 0 | 5 | 29 | 48 | 

Source: patent US9426996B2, “Use of benzoxaboroles as volatile antimicrobial agents on meats, plants, or plant parts” (AgroFresh Inc., priority 2013, dated 2016)
